According to patent US10265317B2, “Combination of creatine, an omega-3 fatty acid, and citicoline” (University of Utah Research Foundation, priority 2014, dated 2019):

Tests used:
[1] = tested on: females between 40-60 years of age; assay: Hamilton Anxiety Rating Scale (HAM-A), clinical study; assay type: in vivo, human; conditions: Visit 2, higher score indicates more severe symptoms
Protocol: (§1) Approval for the study was obtained from the University of Utah Institutional Review Board (IRB). Informed consent consisted of written assent from participants. The study was conducted under U.S. Food and Drug Administration (FDA) Investigational New Drug Application #104,586. An external Data Safety and Monitoring Board vested with authority to halt the trial was established, and the study was conducted in accordance of the principles of Good Clinical Practice (GCP).
(§2) Participants were recruited through self-referral and IRB-approved advertising. Consecutive patients who met inclusion criteria were enrolled. Inclusion criteria included the following: females between 40-60 years of age. […]
(§3) At each study visit, the following rating scales were administered: the Hamilton Anxiety Rating Scale (HAM A) (Hamilton, 1969) and the Hamilton Depression Rating Scale (HAM D) (Hamilton, 1960), the California Verbal Learning Test (Delis et al., 1987) and the Rey Osterrieth Figure Test (Bennett-Levy, 1984). Adverse events we recorded at each study visit. […]

[2] = tested on: females between 40-60 years of age; assay: Hamilton Depression Rating Scale (HAM-D), clinical study; assay type: in vivo, human; conditions: Visit 2, higher score indicates more severe symptoms
Protocol: as §1, §2, §3

[3] = tested on: frontal lobe levels of both phosphocreatine and adenosine triphosphate; conditions: chronic oral administration; cited from earlier work

C[N+](C)(C)CCOP(=O)(O)OP(=O)([O-])OC[C@H]1O[C@@H](n2ccc(N)nc2=O)[C@H](O)[C@@H]1O [CDP-Choline, cytidine-5′-diphosphocholine]
HAM-A Mean ([1]; 250 mg CDP-Choline): 1.80
HAM-A Mean ([1]; 500 mg CDP-Choline): 1.35
HAM-D Mean ([2]; 250 mg CDP-Choline): 1.60
HAM-D Mean ([2]; 500 mg CDP-Choline): 1.35
frontal lobe levels of phosphocreatine and adenosine triphosphate [3]: increase
